“And” between values parts separate entries of the source, which are not always exact repeats. Identical values can stand only once.
Target: H+,K+-ATPase (Sus scrofa, UniProt P19156)
Experiment: Dose-dependent inhibition of H+,K+-ATPase activity, membrane fractions
Settings: for H+,K+-ATPase activity, raw data of dose-dependent inhibition: single replicate values
[1] = [PCAB] -3.30103 (log, unit not given)
[2] = [PCAB] -3.52288 (log, unit not given)
[3] = [PCAB] -4 (log, unit not given)
[4] = [PCAB] -4.30103 (log, unit not given)
[5] = [PCAB] -4.52288 (log, unit not given)
[6] = [PCAB] -5 (log, unit not given)
[7] = [PCAB] -5.52288 (log, unit not given)
[8] = [PCAB] -6 (log, unit not given)
[9] = [PCAB] -6.30103 (log, unit not given)
[10] = [PCAB] -7 (log, unit not given)
[11] = [PCAB] -8 (log, unit not given)
[12] = [PCAB] -11 (log, unit not given; possibly placeholder for no compound)

Sequence of H+,K+-ATPase (P19156 2-1034 limits assumed): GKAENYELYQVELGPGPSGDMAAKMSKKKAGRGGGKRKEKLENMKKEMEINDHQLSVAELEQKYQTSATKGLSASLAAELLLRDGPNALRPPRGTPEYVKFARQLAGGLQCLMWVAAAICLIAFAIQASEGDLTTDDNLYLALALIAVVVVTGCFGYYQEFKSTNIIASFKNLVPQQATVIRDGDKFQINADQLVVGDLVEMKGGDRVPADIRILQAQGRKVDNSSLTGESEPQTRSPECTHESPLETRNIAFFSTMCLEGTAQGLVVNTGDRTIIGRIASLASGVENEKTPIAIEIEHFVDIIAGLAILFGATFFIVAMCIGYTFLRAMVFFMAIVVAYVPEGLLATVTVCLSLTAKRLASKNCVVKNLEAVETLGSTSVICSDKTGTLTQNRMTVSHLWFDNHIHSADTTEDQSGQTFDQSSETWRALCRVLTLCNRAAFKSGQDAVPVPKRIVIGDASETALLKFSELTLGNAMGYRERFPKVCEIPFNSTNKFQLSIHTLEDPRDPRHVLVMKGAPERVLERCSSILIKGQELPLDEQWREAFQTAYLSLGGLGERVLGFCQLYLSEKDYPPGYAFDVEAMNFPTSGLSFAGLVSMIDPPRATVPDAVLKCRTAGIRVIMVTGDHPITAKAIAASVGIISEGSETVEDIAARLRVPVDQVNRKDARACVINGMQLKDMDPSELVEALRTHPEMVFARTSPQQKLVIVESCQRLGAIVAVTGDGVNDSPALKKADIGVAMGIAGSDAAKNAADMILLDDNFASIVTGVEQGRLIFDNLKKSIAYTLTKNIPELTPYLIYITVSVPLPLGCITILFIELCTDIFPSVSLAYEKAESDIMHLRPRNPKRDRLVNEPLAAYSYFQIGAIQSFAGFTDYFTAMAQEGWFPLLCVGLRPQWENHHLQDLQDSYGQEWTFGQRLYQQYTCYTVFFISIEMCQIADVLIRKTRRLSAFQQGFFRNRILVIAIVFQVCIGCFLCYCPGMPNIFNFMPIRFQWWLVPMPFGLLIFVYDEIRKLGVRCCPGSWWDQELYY
Sequence of H+,K+-ATPase (P18434 whole entry partner): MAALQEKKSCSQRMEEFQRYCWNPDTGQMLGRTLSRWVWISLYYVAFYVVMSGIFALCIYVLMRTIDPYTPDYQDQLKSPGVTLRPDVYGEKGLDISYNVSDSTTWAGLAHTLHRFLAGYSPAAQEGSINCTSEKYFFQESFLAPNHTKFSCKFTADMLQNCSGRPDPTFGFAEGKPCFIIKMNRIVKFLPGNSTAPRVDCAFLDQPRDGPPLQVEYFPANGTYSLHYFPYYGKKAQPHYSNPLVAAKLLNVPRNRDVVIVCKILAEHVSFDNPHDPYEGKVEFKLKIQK

Row | IC50 [µM] | Structure (SMILES) | H+,K+-ATPase activity, raw data of dose-dependent inhibition [1] | H+,K+-ATPase activity, raw data of dose-dependent inhibition [2] | H+,K+-ATPase activity, raw data of dose-dependent inhibition [3] | H+,K+-ATPase activity, raw data of dose-dependent inhibition [4] | H+,K+-ATPase activity, raw data of dose-dependent inhibition [5] | H+,K+-ATPase activity, raw data of dose-dependent inhibition [6] | H+,K+-ATPase activity, raw data of dose-dependent inhibition [7] | H+,K+-ATPase activity, raw data of dose-dependent inhibition [8] | H+,K+-ATPase activity, raw data of dose-dependent inhibition [9] | H+,K+-ATPase activity, raw data of dose-dependent inhibition [10] | H+,K+-ATPase activity, raw data of dose-dependent inhibition [11] | H+,K+-ATPase activity, raw data of dose-dependent inhibition [12] | also measured
1 | 49.5 ± 4.9 | CNCC#CCn1ccc2cccc(C#Cc3ccc(C)cc3)c21 [DQ-15] | -1.23 and -0.26 and -1.44 and 5.07 and -1.8 and 2.8 | 9.09 and 3.72 and 0.29 and -0.76 and -0.99 and -0.84 | 11.93 and 13.25 and 13.98 and 12.44 and 11.99 | 53.33 and 67.11 and 32 and 29.38 and 36.06 and 36.79 | 62.91 and 87.02 and 102.29 and 102.11 and 98.15 and 100.59 | 104.78 and 109.76 and 109.66 and 114.82 and 111.02 and 110.28 | 106.28 and 113.44 and 111.13 and 112.65 and 113.7 and 115.05 | 99.17 and 105.14 and 103.4 and 101.49 and 105.23 and 103.02 | 96.59 and 101.3 and 102.53 and 104.37 and 103.52 and 105.02 | 93.78 and 100.85 and 99.97 and 100.06 and 104.3 and 100.32 | 98.75 and 101.8 and 99.85 and 100.74 and 97.88 and 98.55 | 102.57 and 105.77 and 99.66 and 98.21 and 98.11 and 102.51 | –
2 | > 120 | CNCC#CCn1ccc2cccc(C#Cc3ccccc3)c21 [DQ-14] | 27.73 and 26.74 and 25.35 and 26.06 | 28.44 and 23.96 and 24.12 and 24.35 | 60.7 and 61.39 and 60.36 and 56.79 | 84.92 and 80.56 and 95.68 and 93.2 and 92.03 and 93.46 | 87.04 and 84.8 and 98.89 and 98.98 and 99.17 and 99.96 | 106.23 and 102.41 and 111.55 and 99.92 and 109.43 and 110.94 | 106.37 and 107.48 and 116.43 and 116.24 and 113.84 and 116.41 | 99.88 and 98.19 and 102.47 and 100.9 and 103.05 and 104.28 | 101.13 and 91.4 and 101.1 and 101.3 | 93.06 and 99.72 and 100.85 and 100.56 and 98.57 | 95.47 and 97.96 and 97.95 and 99.07 and 96.42 and 98.64 | 103.16 and 99.44 and 101.23 and 99.08 and 99.88 and 99.77 | –
3 | 3.2 ± 0.2 | CNCc1ccc(OCc2cc(Cl)ccc2OCc2ccc(Cl)cc2)c(Cl)c1 [DQ-07] | 0.27 and 0.6 and 3.27 and 8.56 and 2.84 and 6.16 | -0.35 and -0.17 and 2.58 and 2.95 and 2.71 and 3.29 | -1.84 and -1.63 and 1.31 and 1.18 and 1.05 and 1.62 | -1.84 and -1.6 and 2.69 and 2.52 and 2.83 and 2.8 | -1.24 and -1.47 and 3.31 and 3.19 and 3.75 and 3.57 | 4.55 and 4.67 and 12.66 and 12.06 and 13.24 and 12.08 | 45.69 and 44.11 and 51.61 and 59.03 and 63.14 and 61.87 | 84.95 (2×) and 82.82 and 90.61 and 90.08 and 95.69 | 90.87 and 90.7 and 95.03 and 96.7 and 92.33 and 94.31 | 96.69 and 96.52 and 102.14 and 98.38 and 97.9 and 99.91 | 96.57 and 99.63 and 102.72 and 99.81 and 97.87 and 101.66 | 100.45 and 97.72 and 103.9 and 100.73 and 98.44 and 100.87 | –
4 | 5.57 ± 0.45 | CN(C)Cc1ccc(OCc2ccccc2OCc2ccccc2)cc1 [DQ-11] | -9.05 and -9.17 and -0.38 and -0.55 and 0.75 and 0.18 | -7.01 and -7.07 and 0.86 and 1.01 and 0.22 and 0.76 | 0.73 and 0.95 and 7.54 and 7.57 and 6.64 and 7.22 | 5.75 and 5.69 and 7.96 (2×) and 7.99 and 7.73 | 10.92 and 10.91 and 16.8 and 13.24 and 16.06 and 16.58 | 34.05 and 32.3 and 39.91 and 37.9 and 37.76 and 40.04 | 63.88 and 61.74 and 70.3 and 67.49 and 63.1 and 68.35 | 89.53 and 87.88 and 83.74 and 79.92 and 83.72 and 84.81 | 90.62 and 87.46 and 94.24 and 93.36 and 93.48 and 92.73 | 95.63 and 90.8 and 99.34 and 102.28 and 88.88 and 100.71 | 97.6 and 94.94 and 102 and 102.29 and 100.82 and 103.84 | 102.26 and 95.06 and 98.26 and 100.19 and 96.56 and 106.72 | –
5 | > 2000 | CNCC#CCn1ccnc1NC(=O)c1ccccc1 [DQ-09] | – | – | – | – | – | – | – | – | – | – | – | 99.26 and 98.65 and 101.5 and 98.45 and 98.97 and 101.13 | H+,K+-ATPase activity, raw data of dose-dependent inhibition ([PCAB] -3.455 (log, unit not given)): 63.11 and 66.04 and 91.33 and 94.1 and 93.4 and 93.07; H+,K+-ATPase activity, raw data of dose-dependent inhibition ([PCAB] -3.67685 (log, unit not given)): 81.52 and 80.18 and 94.54 and 95.44 and 96.5 and 95.18; H+,K+-ATPase activity, raw data of dose-dependent inhibition ([PCAB] -4.15397 (log, unit not given)): 92.95 and 94.76 and 92.15 and 93.44 and 92.03 and 93.77; H+,K+-ATPase activity, raw data of dose-dependent inhibition ([PCAB] -4.455 (log, unit not given)): 99 and 99.88 and 97.42 and 97.61 and 95.39 and 91.33; H+,K+-ATPase activity, raw data of dose-dependent inhibition ([PCAB] -4.67685 (log, unit not given)): 97.65 and 97.31 and 107.67 and 103.09 and 98.87 and 105.02; H+,K+-ATPase activity, raw data of dose-dependent inhibition ([PCAB] -5.15397 (log, unit not given)): 99.93 and 96.29 and 97.51 and 98.34 and 88.34 and 93.86; H+,K+-ATPase activity, raw data of dose-dependent inhibition ([PCAB] -5.67685 (log, unit not given)): 101.49 and 99.52 and 93.88 and 106.02 and 103.98 and 106.05; H+,K+-ATPase activity, raw data of dose-dependent inhibition ([PCAB] -6.15397 (log, unit not given)): 99.11 and 99.53 and 98.71 and 99.47 and 95.43 and 99.9; H+,K+-ATPase activity, raw data of dose-dependent inhibition ([PCAB] -7.00046 (log, unit not given)): 100.13 and 101.44 and 98.87 and 102.62 and 97 and 100.92; H+,K+-ATPase activity, raw data of dose-dependent inhibition ([PCAB] -7.15397 (log, unit not given)): 100.4 and 99.7 and 97.72 and 99.58 and 95.86 and 98.79; H+,K+-ATPase activity, raw data of dose-dependent inhibition ([PCAB] -8.15397 (log, unit not given)): 99.08 and 99.65 and 97.54 and 97.72 and 99.14 and 96.06
6 | 1.54 ± 0.07 | NCc1ccc(OCc2ccccc2OCc2ccccc2)cc1 [DQ-12] | -2.13 and -5.12 and -1.35 and 1.97 and -1.31 and 0.69 | -0.8 and -0.12 and -1.95 (2×) and -1.32 and -0.19 | 0.73 and 0 and -0.35 and -0.11 and -0.2 and 0.01 | 3.34 and 3.14 and -0.81 and -0.94 and -0.85 and -0.15 | 5.83 and 5.43 and 5.22 and 6.02 and 6.1 and 5.29 | 14.6 and 14.36 and 13.48 and 12.93 and 13.73 and 12.81 | 35.47 and 34.66 and 35.13 and 34.7 and 33.05 and 34.53 | 63.22 and 63.5 and 59.87 and 57.62 and 57.1 and 58.43 | 74.96 and 75.04 and 76.55 and 75.62 and 74.4 and 76.41 | 91.01 and 87.51 and 98.57 and 99.1 and 95.69 and 97.51 | 96.05 and 93.52 and 100.03 and 97.19 and 98.53 and 98.62 | 97.64 and 96.4 and 100.03 and 99.55 and 98.47 and 102.15 | –

From PMC10509173, “Deep learning driven de novo drug design based on gastric proton pump structures” (Communications Biology, 2023)
